The test system of assay [1] is Ca-Ski. Briefly: Antiproliferative activity against human CaSki cells assessed as inhibition of cell viability incubated for 48 hrs by MTT assay. The assay is classed as functional, cell-based. The following applies: dose microM 3.125-100, time 48.0 hrs.
In assay [2] the test system is Ca-Ski. The assay can be described thus: Induction of apoptosis in human CaSki cells assessed as viable cells at 25 uM after 48 hrs by Annexin V-FITC/PI double staining based flow cytometric analysis (reference value: 93%). The assay is classed as functional. Particulars: read-out: Activity. (Flow cytometry measures light scatter and fluorescence of single cells or particles in a stream.)

In assay [3] the test system is Ca-Ski. The assay can be described thus: Induction of apoptosis in human CaSki cells at 12.5 uM after 48 hrs by Annexin V-FITC/PI double staining based flow cytometric analysis (reference value: 6.25 +/-0.5%). The class given is functional.
Assay [4] is described as follows: Inhibition of Human papillomavirus type 16 derived E7 gene expression in human CaSki cells assessed as fold change in expression at 25 uM measured after 48 hrs by RT-qPCR analysis relative to control. The assay is classed as functional, Ca-Ski.
For assay [5], the system named is Ca-Ski. The assay can be described thus: Induction of apoptosis in human CaSki cells after 48 hrs by Annexin V-FITC/PI double staining based flow cytometric analysis. The following applies: dose microM 12.5-50, time 48.0 hrs. The assay is classed as functional, cell-based.
Assay [6] deals with Ca-Ski. The assay can be described thus: Induction of apoptosis in human CaSki cells assessed as necrotic cells at 25 uM after 48 hrs by Annexin V-FITC/PI double staining based flow cytometric analysis (Rvb =0.075%). The class given is functional.
Assay [7] has as its system Ca-Ski. The assay can be described thus: Induction of apoptosis in human CaSki cells assessed as late apoptotic cells at 25 uM after 48 hrs by Annexin V-FITC/PI double staining based flow cytometric analysis (Rvb =5.59%). The assay is classed as functional.
The nature of assay [8]: Inhibition of Human papillomavirus type 16 derived E7 gene expression in human CaSki cells assessed as fold change in expression at 12.5 uM measured after 48 hrs by RT-qPCR analysis relative to control. The assay is classed as functional, Ca-Ski. For orientation: In qPCR the cycle at which signal appears reflects the starting amount.
The test system of assay [9] is Ca-Ski. Briefly: Induction of apoptosis in human CaSki cells at 25 uM after 48 hrs by Annexin V-FITC/PI double staining based flow cytometric analysis (reference value: 6.25 +/-0.5%). The class given is functional.
The test system of assay [10] is Ca-Ski. Briefly: Induction of apoptosis in human CaSki cells assessed as necrotic cells at 12.5 uM after 48 hrs by Annexin V-FITC/PI double staining based flow cytometric analysis (Rvb =0.075%). The class given is functional.
Assay [11] is described as follows: Inhibition of Human papillomavirus type 16 derived E7 gene expression in human CaSki cells assessed as fold change in expression at 50 uM measured after 48 hrs by RT-qPCR analysis relative to control. The class given is functional, Ca-Ski.
Assay [12] concerns Ca-Ski. Briefly: Induction of apoptosis in human CaSki cells assessed as necrotic cells at 50 uM after 48 hrs by Annexin V-FITC/PI double staining based flow cytometric analysis (Rvb =0.075%). The class given is functional.
Assay [13] concerns Ca-Ski. The assay can be described thus: Induction of apoptosis in human CaSki cells assessed as late apoptotic cells at 12.5 uM after 48 hrs by Annexin V-FITC/PI double staining based flow cytometric analysis (Rvb =5.59%). The class given is functional.
Assay [14] has as its system Ca-Ski. The assay can be described thus: Induction of apoptosis in human CaSki cells assessed as viable cells at 12.5 uM after 48 hrs by Annexin V-FITC/PI double staining based flow cytometric analysis (reference value: 93%). Particulars: read-out: Activity. The assay is classed as functional.
Assay [15] in a line: Inhibition of Human papillomavirus type 16 derived E6 gene expression in human CaSki cells assessed as fold change in expression at 25 uM measured after 48 hrs by RT-qPCR analysis relative to control. The assay is classed as functional, Ca-Ski.
Assay [16] has as its system Ca-Ski. The assay can be described thus: Induction of apoptosis in human CaSki cells assessed as early apoptotic cells at 50 uM after 48 hrs by Annexin V-FITC/PI double staining based flow cytometric analysis (Rvb =0.697%). The class given is functional.
Assay [17] deals with Ca-Ski. Briefly: Induction of apoptosis in human CaSki cells assessed as early apoptotic cells at 25 uM after 48 hrs by Annexin V-FITC/PI double staining based flow cytometric analysis (Rvb =0.697%). The class given is functional.
For assay [18], the system named is Ca-Ski. The assay can be described thus: Induction of apoptosis in human CaSki cells at 50 uM after 48 hrs by Annexin V-FITC/PI double staining based flow cytometric analysis (reference value: 6.25 +/-0.5%). The assay is classed as functional.
For assay [19], the system named is Ca-Ski. The assay can be described thus: Antiproliferative activity against human CaSki cells assessed as reduction in cell viability at 3.125-100 uM by MTT assay. The class given is functional, cell-based. Particulars: dose microM 3.125-100, time hrs 24-72, TDE = time-dependent effect.
The subject of assay [20] is Ca-Ski. The assay can be described thus: Induction of apoptosis in human CaSki cells assessed as late apoptotic cells at 50 uM after 48 hrs by Annexin V-FITC/PI double staining based flow cytometric analysis (Rvb =5.59%). The class given is functional.
The subject of assay [21] is Ca-Ski. Briefly: Induction of apoptosis in human CaSki cells assessed as early apoptotic cells at 12.5 uM after 48 hrs by Annexin V-FITC/PI double staining based flow cytometric analysis (Rvb =0.697%). The assay is classed as functional.
The nature of assay [22]: Inhibition of Human papillomavirus type 16 derived E6 gene expression in human CaSki cells assessed as fold change in expression at 12.5 uM measured after 48 hrs by RT-qPCR analysis relative to control. The class given is functional, Ca-Ski.
For assay [23], the system named is Ca-Ski. The assay can be described thus: Induction of apoptosis in human CaSki cells assessed as viable cells at 50 uM after 48 hrs by Annexin V-FITC/PI double staining based flow cytometric analysis (reference value: 93%). The assay is classed as functional. Particulars: read-out: Activity.
Assay [24] is described as follows: Inhibition of Human papillomavirus type 16 derived E6 gene expression in human CaSki cells assessed as fold change in expression at 50 uM measured after 48 hrs by RT-qPCR analysis relative to control. The assay is classed as functional, Ca-Ski.

On to `CCCCN1C(=O)/C(=C/c2ccc(F)cc2)CC1(C(=O)NC(C)(C)C)C(=O)c1ccc(Cl)cc1` (stereo unspecified), for which the Activity entry in the assay with Ca-Ski [1] was “Dose-dependent effect”.
As to `CC(C)N1C(=O)/C(=C/c2ccc(F)cc2)CC1(C(=O)NC(C)(C)C)C(=O)c1ccc(Br)cc1` (stereo unspecified), the Activity result in the assay with Ca-Ski [1] was “Dose-dependent effect”.
As to `CC(C)N1C(=O)/C(=C/c2ccc(F)cc2)CC1(C(=O)NC(C)(C)C)C(=O)c1ccc(Cl)cc1` (stereo unspecified), in the assay on Ca-Ski [2], the viability at 25 µM was determined as 75.3%. For the same compound, the Activity is 15.6% with Ca-Ski [3]; “Dose-dependent effect” in the assay on Ca-Ski [5]; 0.105% with Ca-Ski [6]; 9.65% in the assay with Ca-Ski [7]; 23.56% in the assay with Ca-Ski [9]; 0.18% in the assay on Ca-Ski [10]. The Activity in the assay on Ca-Ski [12] is 0.217%; in the assay with Ca-Ski [13], 6.24%; in the assay on Ca-Ski [1], “Dose-dependent effect”; in the assay on Ca-Ski [16], 26.2%; with Ca-Ski [17], 14.9%; in the assay with Ca-Ski [18], 41.2%. The values for the Activity result with Ca-Ski [19], with Ca-Ski [20] and in the assay on Ca-Ski [21] were “Tde”, 15% and 8.2%, respectively. Also, the “fold change (FC)” value in assay [4] came to 0.465; in [8], 0.483; in [11], 0.432; in [15] it was 0.547; in assay [22], 0.653; in assay [24], 0.354. Also, in the assay with Ca-Ski [14], the viability at 12.5 µM is 85.4%. The viability at 50 µM in the assay on Ca-Ski [23] was determined as 58.5%.

The record behind these values is ChEMBL document CHEMBL4699507, “Rhopaladins' analogue (E)-2-aroyl-4-(4-fluorobenzylidene)-5-oxopyrrolidines inhibit proliferation, promote apoptosis and down-regulation of E6/E7 mRNA in cervical cancer” (2020).
